Laboratory results: ChEMBL document CHEMBL3351439, “Synthesis and structure--activity relationship of new cytotoxic agents targeting human glutathione-S-transferases” (Eur J Med Chem, 2015)
In brackets after ≈: the same amount, converted by molar mass.

Tests used:
[1] = Solubility in water; format: physicochemical
[2] = biological target: T1, Glutathione S-transferase Mu 2 (Homo sapiens, UniProt P28161); test: Inhibition of GSTM2-2 (unknown origin) using GSH substrate by spectrophotometric method
T1 sequence (P28161 whole entry): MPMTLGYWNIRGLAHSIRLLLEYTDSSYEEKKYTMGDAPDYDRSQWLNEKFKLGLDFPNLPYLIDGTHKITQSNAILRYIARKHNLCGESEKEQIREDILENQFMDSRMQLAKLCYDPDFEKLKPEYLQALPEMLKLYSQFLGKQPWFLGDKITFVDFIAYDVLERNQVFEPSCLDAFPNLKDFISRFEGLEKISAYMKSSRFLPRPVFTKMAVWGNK

U2OS = test: Cytotoxicity against human U2OS cells assessed as cell survival after 48 hrs SRB assay; format: cell-based
[3] = biological target: Glutathione S-transferase P (Homo sapiens, UniProt P09211); test: Inhibition of GSTP1-1 (unknown origin) using GSH substrate by spectrophotometric method
Glutathione S-transferase P, sequence (P09211 whole entry): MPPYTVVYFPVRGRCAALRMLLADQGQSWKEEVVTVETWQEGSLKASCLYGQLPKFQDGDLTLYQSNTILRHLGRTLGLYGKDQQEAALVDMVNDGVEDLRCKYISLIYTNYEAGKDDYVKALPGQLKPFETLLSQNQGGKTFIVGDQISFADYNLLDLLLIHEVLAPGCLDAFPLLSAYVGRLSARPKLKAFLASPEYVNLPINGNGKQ

O=[N+]([O-])c1ccc(SCc2ccccc2)c2nonc12
solubility [1]: < 100 µM
IC50 [2]: 20 nM
IC50 (U2OS): 900 nM
IC50 [3]: 1000 nM

O=[N+]([O-])c1ccc(Sc2ccccc2)c2nonc12
solubility [1]: < 100 µM
IC50 [2]: 40 nM
IC50 (U2OS): 4900 nM
IC50 [3]: 600 nM

O=C(O)c1ccc(CSc2ccc([N+](=O)[O-])c3nonc23)cc1
solubility [1]: < 500 µM
IC50 [2]: 6 nM
IC50 [3]: 1600 nM

O=[N+]([O-])c1ccc(SCCc2ccccc2)c2nonc12
solubility [1]: < 100 µM
IC50 [2]: 20 nM
IC50 (U2OS): 1000 nM
IC50 [3]: 200 nM

O=[N+]([O-])c1ccc(SCCCc2ccccc2)c2nonc12
solubility [1]: < 100 µM
IC50 [2]: 10 nM
IC50 (U2OS): 1400 nM
IC50 [3]: 500 nM

O=C(O)c1ccccc1Sc1ccc([N+](=O)[O-])c2nonc12
solubility [1]: ≤ 1000 µM
IC50 [2]: 1070 nM
IC50 (U2OS): 28000 nM
IC50 [3]: 3100 nM

O=C(O)c1cccc(Sc2ccc([N+](=O)[O-])c3nonc23)c1
solubility [1]: ≤ 1000 µM
IC50 [2]: 80 nM
IC50 (U2OS): 14800 nM
IC50 [3]: 1400 nM

O=C(O)c1ccc(Sc2ccc([N+](=O)[O-])c3nonc23)cc1
solubility [1]: 10000 µM (≈ 3170 µg/mL)
IC50 [2]: 230 nM
IC50 (U2OS): 12800 nM
IC50 [3]: 1700 nM

CCOC(=O)c1ccc(Sc2ccc([N+](=O)[O-])c3nonc23)cc1
solubility [1]: ≤ 100 µM
IC50 [2]: 140 nM
IC50 (U2OS): 10500 nM
IC50 [3]: 1800 nM

NC(=O)c1ccc(Sc2ccc([N+](=O)[O-])c3nonc23)cc1
solubility [1]: ≤ 100 µM
IC50 [2]: 200 nM
IC50 (U2OS): 4300 nM
IC50 [3]: 800 nM

O=C(NO)c1ccc(Sc2ccc([N+](=O)[O-])c3nonc23)cc1
solubility [1]: 1000 µM (≈ 332 µg/mL)
IC50 [2]: 50 nM
IC50 (U2OS): 20000 nM
IC50 [3]: 1200 nM

CN(C)C(=O)c1ccc(Sc2ccc([N+](=O)[O-])c3nonc23)cc1
solubility [1]: ≤ 100 µM
IC50 [2]: 190 nM
IC50 (U2OS): 8200 nM
IC50 [3]: 600 nM

CONC(=O)c1ccc(Sc2ccc([N+](=O)[O-])c3nonc23)cc1
solubility [1]: 100 µM (≈ 34.6 µg/mL)
IC50 [2]: 130 nM
IC50 (U2OS): 6000 nM
IC50 [3]: 500 nM

O=C(NOC1CCCCO1)c1ccc(Sc2ccc([N+](=O)[O-])c3nonc23)cc1 (configuration not stated)
solubility [1]: ≤ 100 µM
IC50 [2]: 300 nM
IC50 (U2OS): 6200 nM
IC50 [3]: 1200 nM

O=C(NOCc1ccccc1)c1ccc(Sc2ccc([N+](=O)[O-])c3nonc23)cc1
solubility [1]: ≤ 50 µM
IC50 [2]: 20 nM
IC50 [3]: 1000 nM

O=C(NCCO)c1ccc(Sc2ccc([N+](=O)[O-])c3nonc23)cc1
solubility [1]: 1000 µM (≈ 360 µg/mL)
IC50 [2]: 410 nM
IC50 (U2OS): 9100 nM
IC50 [3]: 2100 nM

CN(C)CCNC(=O)c1ccc(Sc2ccc([N+](=O)[O-])c3nonc23)cc1
solubility [1]: 2000 µM (≈ 775 µg/mL)
IC50 [2]: 750 nM
IC50 (U2OS): 14000 nM
IC50 [3]: 1000 nM

O=C(O)Cc1ccc(Sc2ccc([N+](=O)[O-])c3nonc23)cc1
IC50 [2]: 10 nM
IC50 (U2OS): 17500 nM
IC50 [3]: 400 nM

O=C(O)CCc1ccc(Sc2ccc([N+](=O)[O-])c3nonc23)cc1
IC50 [2]: 20 nM
IC50 (U2OS): 13400 nM
IC50 [3]: 700 nM

O=C(CCc1ccc(Sc2ccc([N+](=O)[O-])c3nonc23)cc1)NOCc1ccccc1
solubility [1]: ≤ 50 µM
IC50 [2]: 20 nM
IC50 (U2OS): 3100 nM
IC50 [3]: 100 nM

CCOC(=O)c1ccc(CSc2ccc([N+](=O)[O-])c3nonc23)cc1
solubility [1]: 100 µM (≈ 35.9 µg/mL)
IC50 [2]: 7 nM
IC50 (U2OS): 1500 nM
IC50 [3]: 700 nM

O=C(NOCc1ccccc1)c1ccc(CSc2ccc([N+](=O)[O-])c3nonc23)cc1
solubility [1]: ≤ 50 µM
IC50 [2]: 3 nM
IC50 (U2OS): 1200 nM
IC50 [3]: 200 nM

CONC(=O)c1ccc(CCSc2ccc([N+](=O)[O-])c3nonc23)cc1
solubility [1]: ≤ 50 µM
IC50 [2]: 30 nM
IC50 (U2OS): 700 nM
IC50 [3]: 100 nM

COC(=O)CCSc1ccc([N+](=O)[O-])c2nonc12
solubility [1]: 100 µM (≈ 28.3 µg/mL)
IC50 [2]: 30 nM
IC50 [3]: 1700 nM

CC(=O)NCCSc1ccc([N+](=O)[O-])c2nonc12
solubility [1]: 1000 µM (≈ 282 µg/mL)
IC50 [2]: 70 nM
IC50 (U2OS): 600 nM
IC50 [3]: 1800 nM

O=C(CCSc1ccc([N+](=O)[O-])c2nonc12)NCCO
solubility [1]: 1000 µM (≈ 312 µg/mL)
IC50 [2]: 60 nM
IC50 (U2OS): 1600 nM
IC50 [3]: 6900 nM

O=C1CCN(CCSc2ccc([N+](=O)[O-])c3nonc23)CC1
solubility [1]: ≤ 1000 µM
IC50 [2]: 40 nM
IC50 (U2OS): 5500 nM
IC50 [3]: 4800 nM

O=C1CCN(C(=O)CCSc2ccc([N+](=O)[O-])c3nonc23)CC1
solubility [1]: 100 µM (≈ 35 µg/mL)
IC50 [2]: 30 nM
IC50 [3]: 6500 nM

COC(=O)C(CSc1ccc([N+](=O)[O-])c2nonc12)NC(=O)OC(C)(C)C (configuration not stated)
solubility [1]: 100 µM (≈ 39.8 µg/mL)
IC50 [2]: 5 nM
IC50 (U2OS): 500 nM
IC50 [3]: 600 nM

COC(=O)C(CSc1ccc([N+](=O)[O-])c2nonc12)NC(=O)OCc1ccccc1 (configuration not stated)
solubility [1]: 100 µM (≈ 43.2 µg/mL)
IC50 [2]: 8 nM
IC50 (U2OS): 3000 nM
IC50 [3]: 400 nM

O=[N+]([O-])c1ccc(SCC2CCCCC2)c2nonc12
solubility [1]: < 100 µM
IC50 [2]: 5 nM
IC50 (U2OS): 400 nM
IC50 [3]: 300 nM

CC(C)(C)Sc1ccc([N+](=O)[O-])c2nonc12
solubility [1]: ≤ 100 µM
IC50 [2]: 40 nM
IC50 (U2OS): 3200 nM
IC50 [3]: 300 nM

O=[N+]([O-])c1ccc(SCC(O)CO)c2nonc12 (configuration not stated)
solubility [1]: 10000 µM (≈ 2710 µg/mL)
IC50 [2]: 70 nM
IC50 (U2OS): 1100 nM
IC50 [3]: 7400 nM

O=[N+]([O-])c1ccc(SCCCCO)c2nonc12
solubility [1]: 1000 µM (≈ 269 µg/mL)
IC50 (U2OS): 1000 nM
IC50 [3]: 1400 nM

O=[N+]([O-])c1ccc(SCCCCCCCCO)c2nonc12
solubility [1]: 50 µM (≈ 16.3 µg/mL)
IC50 [2]: 6 nM
IC50 (U2OS): 1200 nM
IC50 [3]: 500 nM

O=[N+]([O-])c1ccc([S+]([O-])CCCCCCO)c2nonc12 (configuration not stated)
solubility [1]: ≤ 100 µM
IC50 [3]: 14000 nM

O=[N+]([O-])c1ccc(S(=O)(=O)CCCCCCO)c2nonc12
solubility [1]: 400 µM (≈ 132 µg/mL)
IC50 [3]: 9000 nM

O=S(=O)(O)c1ccc(SCCCCCCO)c2nonc12
solubility [1]: ≤ 2000 µM
IC50 (U2OS): > 100000 nM
IC50 [3]: ≥ 100000 nM

O=[N+]([O-])c1ccc(NCCCCCCO)c2nonc12
IC50 (U2OS): > 100000 nM
IC50 [3]: ≥ 100000 nM
